Reference: US20230167458A1, “FORSKOLIN-INDUCIBLE PROMOTERS AND HYPOXIA-INDUCIBLE PROMOTERS” (ASKLEPIOS BIOPHARMACEUTICAL, INC., priority 2020, published 2023)

B1: FORCYB1: synthetic forskolin-inducible promoter, SEQ ID NO: 45; 5× cAMPRE and 4× AP1 TFBS and YB-TATA (nucleic acid)
DNA: TGACGTCACGATTACCATTGACGTCACGATTACCATTGACGTCACGATTACCATTGACGTCACGATTACCATTGACGTCAGCGATTAAGATGACTCAGCGATTAAGATGACTCAGCGATTAAGATGACTCAGCGATTAAGATGACTCAGCGATTAATCCATATGCTCTAGAGGGTATATAATGGGGGCCACTAGTCTACTACCAGAAAGCTTGGTACCGAGCTCGGATCCAGCCACC
modifications: synthetic forskolin-inducible promoter

Key:
[1] = system: CHO-GS-KSV1 cell line; assay: SEAP expression in stably transfected CHO-GS-KSV1, forskolin or NKH477 induction; assay type: cell-based, chinese hamster; conditions: for optimal inducer concentration to induce expression from RTV-019: stably transfected CHO-GS-KSV1/CHO-K1SV, SEAP after 24 hours, 2, 5, 9, 18 or 32 pM tested
Procedure: The forskolin-inducible promoters were then tested in a stably transfected CHO-GS-KSV1 cell line.
• CD-CHO media (Life technologies, CAT #10743029) • Corning 125 mL Polycarbonate Erlenmeyer Flask with Vent Cap (CAT #734-1885). • Gene Pulser® Electroporation Cuvettes, 0.4 cm gap (BioRad, CAT #165-2088) • Gene Pulser Xcell Total System (BioRad, CAT, #1652660) • GS-vector DNA ([…] in 100 μL TE buffer) linearised with Sca1 • Suspension cultures of CHOK1SV GS-KO host cells.
Cell suspensions of 6×10^5 cells per mL were incubated on an orbital shaker set at 8% CO2, 20% O2, 37° C., 85% relative humidity and 140 rpm overnight. 2.86×10^7 cells were centrifuged at 200 g for 3 minutes. Media was then aspirated and cell pellet resuspended in 2 mL fresh CD-CHO media to obtain a concentration of 1.43×10^7 cells per mL. 700 μL of cell suspension was added to each of two electroporation cuvettes each containing […] of linearised DNA in 100 μL of sterile TE buffer (Thermofisher, 12090015). Each cuvette was electroporated, delivering a single pulse of 300V, […] with resistance to infinity. Immediately after delivery of pulse electroplated cells were transferred to Erlenmeyer 125 mL flask containing 20 mL of CD-CHO media pre-warmed to 37° C. Electroporated cells from two cuvettes are combined into a single 125 mL flask to generate one pool of cells. Cells are cultured on an orbital shaker set at 8% CO2, 20% O2, 37° C., 85% relative humidity and 140 rpm. Cells are transferred to fresh CD-CHO media 24 hours after transfection and cell cultures monitored and given fresh CD-CHO media every 2-4 days. Usually after about 10-14 days cell numbers will be high enough to start passaging.
The transfected DNA was the pXC-17.4 expression vector (Lonza Biologics plc) where one of the promoter constructs (or a control promoter (CMV-IE) have been cloned upstream of the secreted alkaline phosphatase (SEAP) gene, which had been cloned into the multiple cloning site within the vector expression cassette. Promoters were closed into the pXC-17.4 vector using Gibson assembly. The pXC-17.4 expression vector is designed for making stable cell lines in the CHO-GSK1SV cell line as it contains the […] gene which has been knocked out of the cell line. Therefore, selection of cells in glutamine drop-out medium will select for cells that have stably integrated the plasmid.
The responsiveness of the RTV-019 promoter to different concentrations of forskolin and […] was tested in the stably transfected CHO-GS-KSV1 cell line. To this end, the stably transfected CHO-GS cells were seeded at 500,000 cells/ml and allowed to grow for 24 hrs. At this point the cells were induced by addition of the respective concentrations of forskolin and NKH477 and SEAP expression was measured as described below after 24 hours.
The promoter activity and inducibility of FMP-02, FORCYB-001, RTV-017, FORCSV-10, FOR-CMC-009, FLP-01 and RTV-019 were also tested in the stably transfected CHO-GS-KSV1 cell line. To this end, the stably transfected CHO-GS cells were seeded at 500,000 cells/ml and allowed to grow for 24 hrs. At this point the cells were exposed to […] forskolin or […] NKH477 for 24 hours. After this point, the SEAP activity in the medium was assessed as described below.
SEAP Reporter Gene Assay, chemiluminescent (Roche, CAT #11 779 842 001) was used to measure SEAP activity as per the manufacturer's protocol. All reagents and samples were fully pre-equilibrated at room temperature. Culture supernatant was collected from the stably transfected CHO-GS at the specific time points (0 h and 24 h). The supernatant was diluted 1:4 in dilution buffer and heat treated at 65° C. for 30 minutes. The heat-treated sample was then centrifuged for 30 s at maximum speed. 50 μl of the heat-treated sample was then added to 5 μl of inactivation buffer and incubated for 5 min at room temperature. 50 μl of substrate reagent was then added and incubated for 10 min at room temperature. […]

[2] = system: Huh7 human liver cell line; assay: Luciferase expression from promoters in pAAV vector (with ITRs) in Huh7, forskolin or NKH477 induction; design: fold induction with forskolin: dose or concentration left out as unconfirmed
Procedure: The forskolin-inducible promoters RTV-017, RTV-019 and FORCYB1 were then used to drive expression of luciferase in a pAAV vector in the Huh7 human liver cell line. […] This experiment was performed to investigate the effect of the Inverted Terminal Repeats (ITRs) on the activity of the promoters.
The cells were seeded, transfected and induced as described above. Luciferase expression was measured as described above. In this experiment, the cells were induced by using 20 pM forskolin or 7.2 pM of the water soluble derivative NKH477.

Row | Molecule | optimal inducer concentration to induce expression from RTV-019 [1] | optimal inducer concentration to induce expression from RTV-019 ([1]; listed as forskolin) [µM] | potency as inducer of the promoters compared with forskolin ([1]; stable CHO-GS-KSV1, 7.2 µM NKH477 vs 20 µM forskolin) | optimal inducer concentration to induce expression from RTV-019 ([1]; listed as NKH 477) | fold induction with forskolin ([2]; Huh7) [fold] | luciferase activity without induction (background) ([2]; Huh7) | fold induction with NKH477 ([2]; Huh7, 7.2 pM NKH477) [fold] | luciferase activity following induction ([2]; Huh7, or 7.2 pM NKH477)
1 | C=C[C@@]1(C)CC(=O)[C@]2(O)[C@@]3(C)[C@@H](O)CCC(C)(C)[C@@H]3[C@H](O)[C@H](OC(C)=O)[C@@]2(C)O1 [Forskolin] | about 18 pM | 18 | – | – | – | – | – | –
2 | C=C[C@@]1(C)CC(=O)[C@]2(O)[C@@]3(C)[C@@H](O)CCC(C)(C)[C@@H]3[C@H](OC(=O)CCN(C)C)[C@H](OC(C)=O)[C@@]2(C)O1.Cl [NKH477, NKH 477] | 8 µM | – | slightly more potent inducer | about 8 pM | – | – | – | –
3 | B1 | – | – | – | – | 65 | low background activity | 30 | high activity
